Source: BindingDB's records for patent US12310975 (Arvinas Operations, 2025)

These compounds were tested against B-cell lymphoma 6 protein (Homo sapiens, UniProt P41182) (assay: BCL6 TR-FRET Protocol).
Method: Assay buffer A: 50 mM HEPES pH 7.5, 125 mM NaCl, 0.01% TritonX.Assay buffer B (made fresh): buffer A+1 mM Glutathione (or 0.5 mM DTT).Assay buffer C (made fresh): buffer B+0.03% BSA.Black Proxy plates, 96 well.15 μl final reaction volumes (BCoR-Cy5 100 nM, SA-Eu 2 nM, BCL6-avitag 2 nM).134 μM BCL6-Avitag-Biotin stock: made fresh by adding 2 μl of BCL6-Avitag-Biotin to 31.5 ml Buffer C.1 mM BCoR-Cy5 peptide (LifeTein) stock in Dimethylformamide (DMF).300 nM BCoR-Cy5 working stock: made fresh by adding 4.5 μl of the 1 mM BCoR-Cy5 peptide stock to 15 ml Buffer B.10 μM Eu-Streptavidin (Lance Eu-W1024 Streptavidin, PerkinElmer) stock solution.6 nM Eu-Streptavidin working stock: made fresh by adding 9 μl Eu-Streptavidin stock solution to 15 ml Buffer A.Compounds were diluted to 10 mM. Twenty microliters of DMSO was aliquoted to each well of the microtiter plates. From the 10 mM compound stock, 8.7 ul was aliquoted to the 20 ul DMSO and 3-fold serial dilutions (12 pt […] tritration plate, 96 well, 100% DMSO) performed. Five ul from the titration plate wells was aliquoted to 45 ul Buff C (Intermediate dilution plates, 10% DMSO).Spot 1.5 μl compound titrations to 384-well plates in duplicate, and spot 3.5 μl [8.5 nM] BCL6-bio protein to each well. The plate was mix briefly, centrifuged, and incubated for 30 minutes at room temperature.Mix 14 mls of BCoR-Cy5 [300 nM] and 14 mls [6 nM] Eu-Streptavidin. Spot 10 μl BCoR-Cy5/SA-Eu (1:1) mix to each well. The plates were incubated for 2 hours and then read on an Envision plate reader.
`Cn1c(=O)c(OC2COC2)cc2cc(Nc3nc(N4CCC(CN5CCN(c6ccc7c(c6)C(=O)N(C6CCC(=O)NC6=O)C7=O)CC5)CC4)ncc3Cl)ccc21` (configuration not stated) [US12310975, Example 223] gave an IC50 greater than 0.1 µM.
`CNC(=O)COc1cc2cc(Nc3cc(N4CCN(CC5CCN(c6ccc7c(c6)C(=O)N(C6CCC(=O)NC6=O)C7=O)CC5)CC4)ncc3Cl)ccc2n(C)c1=O` (configuration not stated) [US12310975, Example 253] gave an IC50 of less than 0.01 µM.
With `CNC(=O)COc1cc2cc(Nc3cc(N4CCN(C(C)(C)C5CCN(c6ccc7c(c6)C(=O)N(C6CCC(=O)NC6=O)C7=O)CC5)CC4)ncc3Cl)ccc2n(C)c1=O` (configuration not stated) [US12310975, Example 261] the IC50 was greater than 0.1 µM.
Work on `CCC(C1CCN(c2ccc3c(c2)C(=O)N(C2CCC(=O)NC2=O)C3=O)CC1)N1CCN(c2ncc(Cl)c(Nc3ccc4c(c3)cc(OCC(=O)NC)c(=O)n4C)n2)CC1` (configuration not stated) [US12310975, Example 337] yielded an IC50 of less than 0.01 µM.
Compound `CNC(=O)COc1cc2cc(Nc3nc(N4CCN(CC5CCN(c6cc(OC)cc7c6C(=O)N(C6CCC(=O)NC6=O)C7=O)CC5)CC4)ncc3Cl)ccc2n(C(C)C)c1=O` (configuration not stated) [US12310975, Example 414] has an IC50 of less than 0.01 µM.
For `CNC(=O)COc1cc2cc(Nc3nc(N4CCC(CN5CCC6(CC5)CN(c5cccc(C(=O)NC7CCC(=O)NC7=O)c5F)C6)CC4)ncc3Cl)ccc2n(C(C)C)c1=O` (configuration not stated) [US12310975, Example 419], the IC50 was less than 0.01 µM.
`CNC(=O)COc1cc2cc(Nc3nc(N4CC5(CCN(CC6CCN(c7cccc8c7C(=O)N(C7CCC(=O)NC7=O)C8=O)CC6)CC5)C4)ncc3Cl)ccc2n(C(C)C)c1=O` (configuration not stated) [US12310975, Example 426] gave an IC50 of less than 0.01 µM.
`CNC(=O)COc1cc2cc(Nc3nc(N4CCC(OC5CC6(CCN(c7cccc(C(=O)NC8CCC(=O)NC8=O)c7F)CC6)C5)CC4)ncc3Cl)ccc2n(C(C)C)c1=O` (configuration not stated) [US12310975, Example 433] was tested, and the IC50 was greater than 0.1 µM.
Work on `CNC(=O)COc1cc2cc(Nc3nc(N4CCC(OC5CC6(CCN(c7cccc(C(=O)NC8CCC(=O)NC8=O)c7OC)CC6)C5)CC4)ncc3Cl)ccc2n(C(C)C)c1=O` (configuration not stated) [US12310975, Example 449] yielded an IC50 greater than 0.1 µM.
`CNC(=O)COc1cc2cc(Nc3nc(N4CCN(C(C)(C)C5CCN(c6ccc(OC)c(C(=O)NC7CCC(=O)NC7=O)c6F)CC5)CC4)ncc3Cl)ccc2n(C)c1=O` (configuration not stated) [US12310975, Example 468] gave an IC50 of less than 0.01 µM.
Compound `CNC(=O)COc1cc2cc(Nc3nc(N4CCC(C5(N6CCC(c7ccc8c(c7)C(=O)N(C7CCC(=O)NC7=O)C8=O)CC6)CC5)CC4)ncc3Cl)ccc2n(C)c1=O` (configuration not stated) [US12310975, Example 482] has an IC50 of less than 0.01 µM.
With `CNC(=O)COc1cc2cc(Nc3nc(N4CCC(CN5CCCN(c6cccc(N7CCC(=O)NC7=O)c6)CC5)CC4)ncc3Cl)ccc2n(C(C)C)c1=O` [US12310975, Example 498] the IC50 was greater than 0.1 µM.
